# Measured values: PubChem BioAssay AID330 (DTP/NCI, 2004)
# Where “and” joins values, the source holds several entries; their conditions need not be identical. Equal entries are not always repeated. Inconclusive results and toxic doses are left out.
# System: P388 leukemia ip, CD2F1 mice, survival T/C
# Assay: NCI In Vivo Anticancer Drug Screen. Data for tumor model P388 Leukemia (intraperitoneal) in CD2F1 (CDF1) mice
# Settings: endpoint: median survival time, higher = longer survival
# In short: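 Mice carrying the transplanted tumor received test compound or vehicle. Survival was recorded in each group, and the value is the treated-group measurement divided by that of the vehicle-treated control group.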
# [1] = dose: 50.0 mg/kg/injection, schedule: Q01DX009 (ip), vehicle: saline with Tween-80
# [2] = dose: 100.0 mg/kg/injection, schedule: Q01DX009 (ip), vehicle: saline with Tween-80
# [3] = dose: 200.0 mg/kg/injection, schedule: Q01DX009 (ip), vehicle: saline with Tween-80
# [4] = dose: 6.25 mg/kg/injection, schedule: Q01DX009 (ip), vehicle: saline with Tween-80
# [5] = dose: 12.5 mg/kg/injection, schedule: Q01DX009 (ip), vehicle: saline with Tween-80
# [6] = dose: 25.0 mg/kg/injection, schedule: Q01DX009 (ip), vehicle: saline with Tween-80
# [7] = dose: 60.0 mg/kg/injection, schedule: Q01DX005 (ip), vehicle: Klucel (hydroxypropylcellulose) (HPC)
# [8] = dose: 120.0 mg/kg/injection, schedule: Q01DX005 (ip), vehicle: Klucel (hydroxypropylcellulose) (HPC)
# [9] = dose: 240.0 mg/kg/injection, schedule: Q01DX005 (ip), vehicle: Klucel (hydroxypropylcellulose) (HPC)
# [10] = dose: 100.0 mg/kg/injection, schedule: Q04DX002 (ip), vehicle: saline with Tween-80
# [11] = dose: 200.0 mg/kg/injection, schedule: Q04DX002 (ip), vehicle: saline with Tween-80
# [12] = dose: 100.0 mg/kg/injection, schedule: Q04DX003 (ip), vehicle: saline
# [13] = dose: 200.0 mg/kg/injection, schedule: Q04DX003 (ip), vehicle: saline
# [14] = dose: 100.0 mg/kg/injection, schedule: Q04DX003 (ip), vehicle: Klucel (hydroxypropylcellulose) (HPC)
# [15] = dose: 200.0 mg/kg/injection, schedule: Q04DX003 (ip), vehicle: Klucel (hydroxypropylcellulose) (HPC)
# [16] = dose: 400.0 mg/kg/injection, schedule: Q04DX003 (ip), vehicle: Klucel (hydroxypropylcellulose) (HPC)
# [17] = dose: 200.0 mg/kg/injection, schedule: Q01DX005 (ip), vehicle: saline with Tween-80
# [18] = dose: 50.0 mg/kg/injection, schedule: Q01DX005 (ip), vehicle: saline with Tween-80
# [19] = dose: 100.0 mg/kg/injection, schedule: Q01DX005 (ip), vehicle: saline with Tween-80
# [20] = dose: 50.0 mg/kg/injection, schedule: Q01DX009 (ip), vehicle: Klucel (hydroxypropylcellulose) (HPC)
# [21] = dose: 100.0 mg/kg/injection, schedule: Q01DX009 (ip), vehicle: Klucel (hydroxypropylcellulose) (HPC)
compound,measurement,setting,value
CCCCOCC(=O)OC,T/C,[1],102 % of control
same,T/C,[2],102 % of control
same,T/C,[3],107 % of control
c1ccc2c(c1)Sc1ccccc1N2CC1CN2CCC1CC2 (stereo not drawn),T/C,[4],107 % of control
same,T/C,[5],98 % of control and 114 % of control
same,T/C,[6],112 % of control and 123 % of control
same,T/C,[1],104 % of control
COc1ccc(-n2c(O)c(N=Nc3nc4ccc([N+](=O)[O-])cc4s3)c(=O)n(-c3ccccc3)c2=S)cc1,T/C,[7],103 % of control
same,T/C,[8],100 % of control
same,T/C,[9],91 % of control
CCCc1cccc2c3c([nH]c12)C(CC)(CC(=O)O)CCC3 (stereo not drawn),T/C,[5],97 % of control
same,T/C,[6],106 % of control
same,T/C,[1],98 % of control and 97 % of control
O=c1c2ccccc2nc(/C=N/NC(=S)Nc2ccc(Cl)cc2)n1-c1ccc(Br)cc1,T/C,[10],96 % of control
same,T/C,[11],88 % of control
CC12CCC(=O)C=C1CCCC2=O (stereo not drawn),T/C,"dose: 50.0 mg/kg/injection, schedule: Q04DX003 (ip), vehicle: saline",95 % of control
same,T/C,[12],100 % of control
same,T/C,[13],90 % of control
CC(Oc1ccccc1)C(=O)O (stereo not drawn),T/C,[1],98 % of control
same,T/C,[2],97 % of control
O=S(=O)(CCc1ccccc1)c1nc2ccccc2s1,T/C,[7],99 % of control
same,T/C,[8],100 % of control
same,T/C,[9],101 % of control
O=c1oc(-c2ccccc2)nc2cc(Cl)ccc12,T/C,[14],100 % of control
same,T/C,[15],90 % of control
same,T/C,[16],107 % of control
O=C(NC1CCC(CC2CCC(NC(=O)C34CC5CC(CC(C5)C3)C4)CC2)CC1)C12CC3CC(CC(C3)C1)C2 (stereo not drawn),T/C,"dose: 0.4 mg/kg/injection, schedule: Q01DX005 (ip), vehicle: saline with Tween-80",97 % of control
same,T/C,"dose: 0.8 mg/kg/injection, schedule: Q01DX005 (ip), vehicle: saline with Tween-80",98 % of control
same,T/C,"dose: 1.56 mg/kg/injection, schedule: Q01DX005 (ip), vehicle: saline with Tween-80",91 % of control
same,T/C,"dose: 1.6 mg/kg/injection, schedule: Q01DX005 (ip), vehicle: saline with Tween-80",97 % of control
same,T/C,"dose: 3.2 mg/kg/injection, schedule: Q01DX005 (ip), vehicle: saline with Tween-80",87 % of control
same,T/C,"dose: 6.25 mg/kg/injection, schedule: Q01DX005 (ip), vehicle: saline with Tween-80",89 % of control
same,T/C,[17],86 % of control
Cc1ccc(N(O)C(=O)c2ccccc2)c(C)c1,T/C,[18],102 % of control and 98 % of control
same,T/C,[19],92 % of control and 93 % of control
same,T/C,[17],123 % of control and 98 % of control
same,T/C,"dose: 400.0 mg/kg/injection, schedule: Q01DX005 (ip), vehicle: saline with Tween-80",111 % of control
CCOC1(OCC)C(=O)N(c2ccc(Cl)c(Cl)c2)C(=O)N1c1ccc(Cl)c(Cl)c1,T/C,[12],95 % of control
same,T/C,[13],92 % of control
same,T/C,"dose: 400.0 mg/kg/injection, schedule: Q04DX003 (ip), vehicle: saline",89 % of control
CCOC(=O)C(C)NC(=O)OCc1ccccc1 (stereo not drawn),T/C,"dose: 60.0 mg/kg/injection, schedule: Q01DX005 (ip), vehicle: saline with Tween-80",101 % of control
same,T/C,"dose: 120.0 mg/kg/injection, schedule: Q01DX005 (ip), vehicle: saline with Tween-80",112 % of control
same,T/C,"dose: 240.0 mg/kg/injection, schedule: Q01DX005 (ip), vehicle: saline with Tween-80",116 % of control
C[C@]12C[C@@H](O)[C@H]3[C@@H](CCC4=C(O)C(=O)CC[C@@]43C)[C@@H]1CC[C@@H]2O,T/C,"dose: 12.5 mg/kg/injection, schedule: Q01DX005 (ip), vehicle: Klucel (hydroxypropylcellulose) (HPC)",97 % of control
same,T/C,"dose: 25.0 mg/kg/injection, schedule: Q01DX005 (ip), vehicle: Klucel (hydroxypropylcellulose) (HPC)",105 % of control
same,T/C,"dose: 50.0 mg/kg/injection, schedule: Q01DX005 (ip), vehicle: Klucel (hydroxypropylcellulose) (HPC)",101 % of control
same,T/C,"dose: 100.0 mg/kg/injection, schedule: Q01DX005 (ip), vehicle: Klucel (hydroxypropylcellulose) (HPC)",90 % of control
same,T/C,"dose: 200.0 mg/kg/injection, schedule: Q01DX005 (ip), vehicle: Klucel (hydroxypropylcellulose) (HPC)",95 % of control
O=C1CNC(=O)C(O)N1 (stereo not drawn),T/C,[18],93 % of control
same,T/C,[19],100 % of control
same,T/C,[17],97 % of control
CCN(CC)C(=O)c1nc(-c2cccc3ccccc23)no1,T/C,[20],100 % of control
same,T/C,[21],97 % of control
same,T/C,"dose: 200.0 mg/kg/injection, schedule: Q01DX009 (ip), vehicle: Klucel (hydroxypropylcellulose) (HPC)",98 % of control
CC(=O)c1cc(C(=O)O)c(O)c2ccccc12,T/C,[20],90 % of control
same,T/C,[21],92 % of control
O=C(O)C(=O)O.[NH-]C1CCCC1[NH-].[Pt+2] (stereo not drawn),T/C,"dose: 12.5 mg/kg/injection, schedule: Q04DX002 (ip), vehicle: saline with Tween-80",166 % of control
same,T/C,"dose: 12.5 mg/kg/injection, schedule: Q04DX002 (ip), vehicle: saline",176 % of control
CC(C)(C)OC(=O)N1CCCC1C(=O)N1CCCC1C(=O)Oc1ccccc1 (stereo not drawn),T/C,"dose: 50.0 mg/kg/injection, schedule: Q01DX005 (ip), vehicle: saline",100 % of control
same,T/C,"dose: 100.0 mg/kg/injection, schedule: Q01DX005 (ip), vehicle: saline",100 % of control
same,T/C,"dose: 200.0 mg/kg/injection, schedule: Q01DX005 (ip), vehicle: saline",100 % of control
CC1=CC2N(C=C1)C(c1ccccc1)=NON2c1cc(C)ccn1 (stereo not drawn),T/C,"dose: 7.5 mg/kg/injection, schedule: Q01DX005 (ip), vehicle: saline with Tween-80",91 % of control
same,T/C,"dose: 15.0 mg/kg/injection, schedule: Q01DX005 (ip), vehicle: saline with Tween-80",94 % of control
same,T/C,"dose: 30.0 mg/kg/injection, schedule: Q01DX005 (ip), vehicle: saline with Tween-80",91 % of control
O=C(N/N=C/c1cc(Cl)cc(Cl)c1[O-])c1ccccc1.O=C(N/N=C/c1cc(Cl)cc(Cl)c1[O-])c1ccccc1.[Fe+2],T/C,[10],98 % of control
same,T/C,[11],103 % of control
same,T/C,"dose: 400.0 mg/kg/injection, schedule: Q04DX002 (ip), vehicle: saline with Tween-80",100 % of control
OC1(C2=COCCO2)CCCCC1,T/C,"dose: 60.0 mg/kg/injection, schedule: Q01DX005 (ip), vehicle: saline",105 % of control
same,T/C,"dose: 120.0 mg/kg/injection, schedule: Q01DX005 (ip), vehicle: saline",110 % of control
same,T/C,"dose: 240.0 mg/kg/injection, schedule: Q01DX005 (ip), vehicle: saline",105 % of control
CCOP1(OCC)(OCC)OC(C(F)(F)F)(C(F)(F)F)C(C(F)(F)F)(C(F)(F)F)O1,T/C,[4],100 % of control
same,T/C,[5],105 % of control
CCOC(=O)C(=Cc1ccccc1Cl)C(=O)OCC,T/C,[6],100 % of control and 111 % of control
same,T/C,[1],110 % of control
same,T/C,[2],102 % of control and 120 % of control
same,T/C,[3],116 % of control
CCOC(=O)C(=O)C1CC(c2ccccc2)=NNC1=O (stereo not drawn),T/C,[1],99 % of control
same,T/C,[2],103 % of control
same,T/C,[3],96 % of control
C=C1CCC2(O)C(=C)C(=O)OC2C2C(=C)CCC12 (stereo not drawn),T/C,"dose: 4.0 mg/kg/injection, schedule: Q01DX009 (ip), vehicle: Klucel (hydroxypropylcellulose) (HPC)",96 % of control
same,T/C,"dose: 8.0 mg/kg/injection, schedule: Q01DX009 (ip), vehicle: Klucel (hydroxypropylcellulose) (HPC)",100 % of control
same,T/C,"dose: 16.0 mg/kg/injection, schedule: Q01DX009 (ip), vehicle: Klucel (hydroxypropylcellulose) (HPC)",102 % of control
same,T/C,"dose: 32.0 mg/kg/injection, schedule: Q01DX009 (ip), vehicle: Klucel (hydroxypropylcellulose) (HPC)",110 % of control
c1ccc(C2=NNC(c3ccccc3)=NN2)cc1,T/C,"dose: 0.78 mg/kg/injection, schedule: Q01DX009 (ip), vehicle: saline with Tween-80",107 % of control
same,T/C,"dose: 1.56 mg/kg/injection, schedule: Q01DX009 (ip), vehicle: saline with Tween-80",95 % of control
same,T/C,"dose: 3.12 mg/kg/injection, schedule: Q01DX009 (ip), vehicle: saline with Tween-80",89 % of control
same,T/C,[6],93 % of control
same,T/C,[1],100 % of control
same,T/C,"dose: 50.0 mg/kg/injection, schedule: Q04DX003 (ip), vehicle: Klucel (hydroxypropylcellulose) (HPC)",97 % of control
same,T/C,[2],90 % of control
same,T/C,[14],104 % of control
same,T/C,[15],97 % of control
same,T/C,[16],94 % of control
